Data reported in patent US20060127990A1, “4'-thionucleotide” (GENETICLAB CO., LTD, priority 2002, published 2006).

Columns and labels:
[1] = biological target: T1, T7 RNA polymerase (Escherichia phage T7, UniProt P00573); test: Incorporation of 4′-thio UTP and 4′-thio CTP into RNA chain with T7 RNA polymerase (30mer transcript); format: biochemical; conditions: 0.4 mM NTPs, replacing the native NTP, 47mer double-stranded DNA template, 37° C., 3 hours
Experimental: Incorporation experiment using T7 RNA polymerase was performed with 4′-thio UTP and 4′-thio CTP. In this experiment, 47mer double-stranded DNA containing T7 promoter sequence was used (FIG. 9).
The reaction was conducted in 20 μL of a solution containing 40 mM Tris-HCl with pH 8.0, 8 mM MgCl2, 2 mM spermidine, 5 mM DTT, 0.4 mM NTPS, 17 nM [γ-^32P]GTP, 2.0 μM template DNA and 100 U T7 RNA polymerase. NTPs were (1) ATP, GTP, CTP and UTP, (2) using 4′-thio UTP instead of UTP, 3) using 4′-thio CTP instead of CTP, and 4) UTP and CTP were replaced with 4′-thio UTP and 4′-thio CTP. The reaction solution was incubated at 37° C. for 3 hours, and the reaction was stopped. Subsequently, electrophoresis was performed with 20% modified polyacrylamide gel (30×40×0.05 cm, 1800 V, 1 hour, 1×TEB), and analysed by autoradiography.
A relative transcription efficiency is shown in FIG. 10 with a transcription efficiency of native NTPs being defined as 100.

[2] = biological target: T1, T7 RNA polymerase; test: Incorporation of 4′-thio UTP into RNA chain with T7 RNA polymerase (26mer transcript); format: biochemical; conditions: 0.4 mM NTPs (GTP+ATP+CTP+4′-thio UTP), 100 U T7 RNA polymerase, 37° C., 3 hours; compared with lane 4 (native UTP)
Experimental: Incorporation experiment using T7 RNA polymerase was performed with 4′-thio UTP obtained in Example 9. In this experiment, double-stranded DNA containing T7 promoter sequence was used (FIG. 7).
The reaction was conducted in 20 μL of a solution containing 40 mM Tris-HCl with PH 8.0, 8 mM MgCl2, 2 mM spermidine, 5 mM DTT, 0.4 mM NTPs, 17 nM [γ-^32P]GTP, 2.0 μM template DNA and 100 U T7 RNA polymerase. NTPs were (1) GTP, (2) GTP+ATP, (3) GTP+ATP+CTP, (4) GTP+ATP+CTP+UTP, and (5) GTP+ATP+CTP+4′-thio UTP, respectively. The reaction solution was incubated at 37° C. for 3 hours, and the reaction was stopped. Subsequently, electrophoresis was performed with 20% modified polyacrylamide gel (30×40×0.05 cm, 1800 V, 1 hour, 1×TEB), and analysed by autoradiography.
In lane 1, bands corresponding to 2mer and 3mer of G and a rudder were observed. In lane 2, an expected band with chain elongation stopped at 6mer was observed, and a minor band elongated by one residue was observed. In lane 3, an expected band with chain elongation stopped at 9mer was observed, and a minor band elongated by one residue was observed. In lane 4, a band of 26mer full-length product was observed.

T1 sequence (P00573 whole entry): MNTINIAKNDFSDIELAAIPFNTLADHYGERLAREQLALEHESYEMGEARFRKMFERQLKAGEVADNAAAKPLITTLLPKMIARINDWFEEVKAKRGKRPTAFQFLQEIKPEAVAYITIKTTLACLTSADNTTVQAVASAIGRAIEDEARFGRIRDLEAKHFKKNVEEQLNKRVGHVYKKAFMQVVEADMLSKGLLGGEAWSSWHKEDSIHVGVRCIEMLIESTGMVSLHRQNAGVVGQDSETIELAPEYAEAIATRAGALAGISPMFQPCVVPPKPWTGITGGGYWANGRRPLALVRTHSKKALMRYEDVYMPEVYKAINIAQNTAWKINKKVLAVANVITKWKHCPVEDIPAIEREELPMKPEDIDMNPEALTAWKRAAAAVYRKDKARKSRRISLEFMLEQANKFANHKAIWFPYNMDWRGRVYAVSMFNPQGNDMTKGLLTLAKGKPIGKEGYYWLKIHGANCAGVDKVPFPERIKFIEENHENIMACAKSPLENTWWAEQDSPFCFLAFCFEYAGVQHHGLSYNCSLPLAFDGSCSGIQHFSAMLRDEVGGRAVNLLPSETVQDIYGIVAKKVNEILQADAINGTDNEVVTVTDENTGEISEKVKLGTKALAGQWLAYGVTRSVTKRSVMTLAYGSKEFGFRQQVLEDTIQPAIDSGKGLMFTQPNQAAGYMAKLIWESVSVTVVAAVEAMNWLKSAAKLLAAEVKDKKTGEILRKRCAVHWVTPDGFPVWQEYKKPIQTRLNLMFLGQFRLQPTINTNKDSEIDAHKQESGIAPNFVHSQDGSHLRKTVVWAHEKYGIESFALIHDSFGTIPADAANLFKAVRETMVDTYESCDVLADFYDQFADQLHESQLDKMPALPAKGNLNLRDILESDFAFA

Compound	recognition by T7 RNA polymerase as substrate and incorporation into RNA chain (30mer full-length product) [1]	band of full-length product (26mer RNA) when used instead of UTP [2]
Nc1ccn([C@@H]2S[C@H](COP(=O)(O)OP(=O)(O)OP(=O)(O)O)[C@@H](O)[C@H]2O)c(=O)n1 [4′-thio CTP, 4′-Thiocytidine 5′-triphosphate]	incorporated into RNA chain efficiently	
O=c1ccn([C@@H]2S[C@H](COP(=O)(O)OP(=O)(O)OP(=O)(O)O)[C@@H](O)[C@H]2O)c(=O)[nH]1 [4′-thio UTP, 4′-Thiouridine 5′-triphosphate]	incorporated into RNA chain efficiently	approximately the same amount as in lane 4
